# Test results from PubChem BioAssay (NCI).
#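 Grown in 96-well plates, cells were treated for 48 hours with each compound at five concentrations. Insufficient inhibition: endpoint recorded as highest concentration tested. The concentration for full growth arrest is given as TGI.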
# Tested on: U251 CNS
# Assay: NCI anticancer screen, dose series, 48 h
row,Compound,TGI [µM]
1,CCOC(=O)/C(=C/c1ccco1)P(=O)(OCC)OCC,> 100
2,O=C(Nc1ccc(S(=O)(=O)N[C@@H](C(=O)O)c2ccccc2)cc1)c1ccc(F)cc1,> 100
3,CC(C)(C)c1nc2c(o1)C(=Nc1ccc(F)cc1)c1ccccc1C2=O,19.7
4,C=C1CC2C(=O)N(c3ccccc3)C(=O)C2CC1n1[nH]c(=O)n(Cc2ccccc2)c1=O (centres undefined),> 100
5,c1ccc2c(c1)N=C(c1cccc3ccccc13)CC(c1cccc3ccccc13)S2 (centres undefined),6.08
6,NS(=O)(=O)c1ccc(NC(=O)c2cccc3c(=O)c4ccccc4[nH]c23)cc1,> 100
7,COc1ccc(C2=NC(C)(C)CO2)cc1,> 100

# Tested on: MALME-3M melanoma
# Assay: NCI anticancer screen, dose series, 48 h
row,Compound,TGI [µM]
1,CCOC(=O)/C(=C/c1ccco1)P(=O)(OCC)OCC,> 100
2,O=C(Nc1ccc(S(=O)(=O)N[C@@H](C(=O)O)c2ccccc2)cc1)c1ccc(F)cc1,> 100
3,CC(C)(C)c1nc2c(o1)C(=Nc1ccc(F)cc1)c1ccccc1C2=O,4.45
4,C=C1CC2C(=O)N(c3ccccc3)C(=O)C2CC1n1[nH]c(=O)n(Cc2ccccc2)c1=O (centres undefined),> 100
5,c1ccc2c(c1)N=C(c1cccc3ccccc13)CC(c1cccc3ccccc13)S2 (centres undefined),28.7
6,NS(=O)(=O)c1ccc(NC(=O)c2cccc3c(=O)c4ccccc4[nH]c23)cc1,94.8
7,COc1ccc(C2=NC(C)(C)CO2)cc1,> 100

# Tested on: SNB-75 CNS
# Assay: NCI anticancer screen, dose series, 48 h
row,Compound,TGI [µM]
1,CCOC(=O)/C(=C/c1ccco1)P(=O)(OCC)OCC,> 100
2,O=C(Nc1ccc(S(=O)(=O)N[C@@H](C(=O)O)c2ccccc2)cc1)c1ccc(F)cc1,> 100
3,CC(C)(C)c1nc2c(o1)C(=Nc1ccc(F)cc1)c1ccccc1C2=O,20
4,C=C1CC2C(=O)N(c3ccccc3)C(=O)C2CC1n1[nH]c(=O)n(Cc2ccccc2)c1=O (centres undefined),> 100
5,c1ccc2c(c1)N=C(c1cccc3ccccc13)CC(c1cccc3ccccc13)S2 (centres undefined),19.1
6,NS(=O)(=O)c1ccc(NC(=O)c2cccc3c(=O)c4ccccc4[nH]c23)cc1,55.2
7,COc1ccc(C2=NC(C)(C)CO2)cc1,> 100

# Tested on: DMS 273 small cell lung
# Assay: NCI anticancer screen, dose series, 48 h
row,Compound,TGI [µM]
1,O=C(Nc1ccc(S(=O)(=O)N[C@@H](C(=O)O)c2ccccc2)cc1)c1ccc(F)cc1,> 100
2,CC(C)(C)c1nc2c(o1)C(=Nc1ccc(F)cc1)c1ccccc1C2=O,10.5
3,C=C1CC2C(=O)N(c3ccccc3)C(=O)C2CC1n1[nH]c(=O)n(Cc2ccccc2)c1=O (centres undefined),> 100
4,c1ccc2c(c1)N=C(c1cccc3ccccc13)CC(c1cccc3ccccc13)S2 (centres undefined),> 44.7
5,NS(=O)(=O)c1ccc(NC(=O)c2cccc3c(=O)c4ccccc4[nH]c23)cc1,> 100
6,COc1ccc(C2=NC(C)(C)CO2)cc1,> 100

# Tested on: A498 renal
# Assay: NCI anticancer screen, dose series, 48 h
row,Compound,TGI [µM]
1,CCOC(=O)/C(=C/c1ccco1)P(=O)(OCC)OCC,> 100
2,O=C(Nc1ccc(S(=O)(=O)N[C@@H](C(=O)O)c2ccccc2)cc1)c1ccc(F)cc1,> 100
3,CC(C)(C)c1nc2c(o1)C(=Nc1ccc(F)cc1)c1ccccc1C2=O,50.9
4,C=C1CC2C(=O)N(c3ccccc3)C(=O)C2CC1n1[nH]c(=O)n(Cc2ccccc2)c1=O (centres undefined),> 100
5,c1ccc2c(c1)N=C(c1cccc3ccccc13)CC(c1cccc3ccccc13)S2 (centres undefined),20.8
6,NS(=O)(=O)c1ccc(NC(=O)c2cccc3c(=O)c4ccccc4[nH]c23)cc1,> 100
7,COc1ccc(C2=NC(C)(C)CO2)cc1,> 100

# Tested on: SR leukemia
# Assay: NCI anticancer screen, dose series, 48 h
row,Compound,TGI [µM]
1,CCOC(=O)/C(=C/c1ccco1)P(=O)(OCC)OCC,> 100
2,CC(C)(C)c1nc2c(o1)C(=Nc1ccc(F)cc1)c1ccccc1C2=O,> 100
3,C=C1CC2C(=O)N(c3ccccc3)C(=O)C2CC1n1[nH]c(=O)n(Cc2ccccc2)c1=O (centres undefined),> 100
4,c1ccc2c(c1)N=C(c1cccc3ccccc13)CC(c1cccc3ccccc13)S2 (centres undefined),4.89
5,NS(=O)(=O)c1ccc(NC(=O)c2cccc3c(=O)c4ccccc4[nH]c23)cc1,> 100
6,COc1ccc(C2=NC(C)(C)CO2)cc1,> 100

# Tested on: CAKI-1 renal
# Assay: NCI anticancer screen, dose series, 48 h
row,Compound,TGI [µM]
1,CCOC(=O)/C(=C/c1ccco1)P(=O)(OCC)OCC,> 100
2,O=C(Nc1ccc(S(=O)(=O)N[C@@H](C(=O)O)c2ccccc2)cc1)c1ccc(F)cc1,> 100
3,CC(C)(C)c1nc2c(o1)C(=Nc1ccc(F)cc1)c1ccccc1C2=O,> 100
4,C=C1CC2C(=O)N(c3ccccc3)C(=O)C2CC1n1[nH]c(=O)n(Cc2ccccc2)c1=O (centres undefined),> 100
5,c1ccc2c(c1)N=C(c1cccc3ccccc13)CC(c1cccc3ccccc13)S2 (centres undefined),13.2
6,NS(=O)(=O)c1ccc(NC(=O)c2cccc3c(=O)c4ccccc4[nH]c23)cc1,> 100
7,COc1ccc(C2=NC(C)(C)CO2)cc1,> 100

# Tested on: SK-MEL-5 melanoma
# Assay: NCI anticancer screen, dose series, 48 h
row,Compound,TGI [µM]
1,CCOC(=O)/C(=C/c1ccco1)P(=O)(OCC)OCC,> 100
2,O=C(Nc1ccc(S(=O)(=O)N[C@@H](C(=O)O)c2ccccc2)cc1)c1ccc(F)cc1,> 100
3,CC(C)(C)c1nc2c(o1)C(=Nc1ccc(F)cc1)c1ccccc1C2=O,3.45
4,C=C1CC2C(=O)N(c3ccccc3)C(=O)C2CC1n1[nH]c(=O)n(Cc2ccccc2)c1=O (centres undefined),> 100
5,c1ccc2c(c1)N=C(c1cccc3ccccc13)CC(c1cccc3ccccc13)S2 (centres undefined),22.1
6,NS(=O)(=O)c1ccc(NC(=O)c2cccc3c(=O)c4ccccc4[nH]c23)cc1,> 100
7,COc1ccc(C2=NC(C)(C)CO2)cc1,> 100

# Tested on: NCI-H460 lung
# Assay: NCI anticancer screen, dose series, 48 h
row,Compound,TGI [µM]
1,CCOC(=O)/C(=C/c1ccco1)P(=O)(OCC)OCC,> 100
2,O=C(Nc1ccc(S(=O)(=O)N[C@@H](C(=O)O)c2ccccc2)cc1)c1ccc(F)cc1,> 100
3,CC(C)(C)c1nc2c(o1)C(=Nc1ccc(F)cc1)c1ccccc1C2=O,21.5
4,C=C1CC2C(=O)N(c3ccccc3)C(=O)C2CC1n1[nH]c(=O)n(Cc2ccccc2)c1=O (centres undefined),> 100
5,c1ccc2c(c1)N=C(c1cccc3ccccc13)CC(c1cccc3ccccc13)S2 (centres undefined),19.5
6,NS(=O)(=O)c1ccc(NC(=O)c2cccc3c(=O)c4ccccc4[nH]c23)cc1,> 100
7,COc1ccc(C2=NC(C)(C)CO2)cc1,> 100

# Tested on: DU-145 prostate
# Assay: NCI anticancer screen, dose series, 48 h
row,Compound,TGI [µM]
1,CC(C)(C)c1nc2c(o1)C(=Nc1ccc(F)cc1)c1ccccc1C2=O,29.4

# Tested on: RXF 393 renal
# Assay: NCI anticancer screen, dose series, 48 h
row,Compound,TGI [µM]
1,O=C(Nc1ccc(S(=O)(=O)N[C@@H](C(=O)O)c2ccccc2)cc1)c1ccc(F)cc1,> 100
2,CC(C)(C)c1nc2c(o1)C(=Nc1ccc(F)cc1)c1ccccc1C2=O,37.9
3,C=C1CC2C(=O)N(c3ccccc3)C(=O)C2CC1n1[nH]c(=O)n(Cc2ccccc2)c1=O (centres undefined),> 100
4,c1ccc2c(c1)N=C(c1cccc3ccccc13)CC(c1cccc3ccccc13)S2 (centres undefined),16.5
5,COc1ccc(C2=NC(C)(C)CO2)cc1,> 100

# Tested on: OVCAR-3 ovarian
# Assay: NCI anticancer screen, dose series, 48 h
row,Compound,TGI [µM]
1,O=C(Nc1ccc(S(=O)(=O)N[C@@H](C(=O)O)c2ccccc2)cc1)c1ccc(F)cc1,> 100
2,CC(C)(C)c1nc2c(o1)C(=Nc1ccc(F)cc1)c1ccccc1C2=O,7.62
3,C=C1CC2C(=O)N(c3ccccc3)C(=O)C2CC1n1[nH]c(=O)n(Cc2ccccc2)c1=O (centres undefined),> 100
4,c1ccc2c(c1)N=C(c1cccc3ccccc13)CC(c1cccc3ccccc13)S2 (centres undefined),9.68
5,NS(=O)(=O)c1ccc(NC(=O)c2cccc3c(=O)c4ccccc4[nH]c23)cc1,> 100
6,COc1ccc(C2=NC(C)(C)CO2)cc1,> 100

# Tested on: NCI-H522 lung
# Assay: NCI anticancer screen, dose series, 48 h
row,Compound,TGI [µM]
1,CCOC(=O)/C(=C/c1ccco1)P(=O)(OCC)OCC,> 100
2,O=C(Nc1ccc(S(=O)(=O)N[C@@H](C(=O)O)c2ccccc2)cc1)c1ccc(F)cc1,> 100
3,CC(C)(C)c1nc2c(o1)C(=Nc1ccc(F)cc1)c1ccccc1C2=O,20.5
4,C=C1CC2C(=O)N(c3ccccc3)C(=O)C2CC1n1[nH]c(=O)n(Cc2ccccc2)c1=O (centres undefined),> 100
5,c1ccc2c(c1)N=C(c1cccc3ccccc13)CC(c1cccc3ccccc13)S2 (centres undefined),8.44
6,NS(=O)(=O)c1ccc(NC(=O)c2cccc3c(=O)c4ccccc4[nH]c23)cc1,65.4

# Tested on: KM20L2 colon
# Assay: NCI anticancer screen, dose series, 48 h
row,Compound,TGI [µM]
1,O=C(Nc1ccc(S(=O)(=O)N[C@@H](C(=O)O)c2ccccc2)cc1)c1ccc(F)cc1,> 100
2,CC(C)(C)c1nc2c(o1)C(=Nc1ccc(F)cc1)c1ccccc1C2=O,32.5
3,C=C1CC2C(=O)N(c3ccccc3)C(=O)C2CC1n1[nH]c(=O)n(Cc2ccccc2)c1=O (centres undefined),> 100
4,c1ccc2c(c1)N=C(c1cccc3ccccc13)CC(c1cccc3ccccc13)S2 (centres undefined),10.4
5,NS(=O)(=O)c1ccc(NC(=O)c2cccc3c(=O)c4ccccc4[nH]c23)cc1,> 100
6,COc1ccc(C2=NC(C)(C)CO2)cc1,> 100

# Tested on: SN12C renal
# Assay: NCI anticancer screen, dose series, 48 h
row,Compound,TGI [µM]
1,CCOC(=O)/C(=C/c1ccco1)P(=O)(OCC)OCC,> 100
2,O=C(Nc1ccc(S(=O)(=O)N[C@@H](C(=O)O)c2ccccc2)cc1)c1ccc(F)cc1,> 100
3,CC(C)(C)c1nc2c(o1)C(=Nc1ccc(F)cc1)c1ccccc1C2=O,23.8
4,C=C1CC2C(=O)N(c3ccccc3)C(=O)C2CC1n1[nH]c(=O)n(Cc2ccccc2)c1=O (centres undefined),> 100
5,c1ccc2c(c1)N=C(c1cccc3ccccc13)CC(c1cccc3ccccc13)S2 (centres undefined),15.9
6,NS(=O)(=O)c1ccc(NC(=O)c2cccc3c(=O)c4ccccc4[nH]c23)cc1,> 100
7,COc1ccc(C2=NC(C)(C)CO2)cc1,> 100

# Tested on: HOP-92 NSCLC
# Assay: NCI anticancer screen, dose series, 48 h
row,Compound,TGI [µM]
1,CCOC(=O)/C(=C/c1ccco1)P(=O)(OCC)OCC,> 100
2,O=C(Nc1ccc(S(=O)(=O)N[C@@H](C(=O)O)c2ccccc2)cc1)c1ccc(F)cc1,> 100
3,CC(C)(C)c1nc2c(o1)C(=Nc1ccc(F)cc1)c1ccccc1C2=O,> 97.7
4,C=C1CC2C(=O)N(c3ccccc3)C(=O)C2CC1n1[nH]c(=O)n(Cc2ccccc2)c1=O (centres undefined),> 100
5,NS(=O)(=O)c1ccc(NC(=O)c2cccc3c(=O)c4ccccc4[nH]c23)cc1,> 100
6,COc1ccc(C2=NC(C)(C)CO2)cc1,> 100

# Tested on: BT-549 breast
# Assay: NCI anticancer screen, dose series, 48 h
row,Compound,TGI [µM]
1,CC(C)(C)c1nc2c(o1)C(=Nc1ccc(F)cc1)c1ccccc1C2=O,12.9
